CCC[C@@H]1CC(=O)N([C@@H](CC)C(N)=O)C1
solubility (mole fraction)
Details | 278.15 K | 283.15 K | 288.15 K | 293.15 K | 298.15 K | 303.15 K | 308.15 K | 313.15 K | 318.15 K | 323.15 K
in MTBE | 0.00794 | 0.0117 | 0.0181 | 0.0331 | 0.0496 | 0.078 | 0.11 | 0.175 | 0.291 | 0.419
in diisopropyl ether | 0.00075 | 0.00108 | 0.00235 | 0.00327 | 0.00513 | 0.00618 | 0.00879 | 0.0143 | 0.0205 | 0.0341
in ethanol | 0.189 | 0.226 | 0.258 | 0.297 | 0.328 | 0.371 | 0.415 | 0.466 | 0.523 | 0.576
in ethyl acetate | 0.0369 | 0.0541 | 0.0769 | 0.113 | 0.152 | 0.201 | 0.275 | 0.332 | 0.418 | 0.499
in ethyl formate | 0.0887 | 0.113 | 0.142 | 0.18 | 0.224 | 0.279 | 0.33 | 0.393 | 0.465 | 0.519
in isopropanol | 0.127 | 0.163 | 0.186 | 0.219 | 0.25 | 0.287 | 0.341 | 0.392 | 0.445 | 0.51
in isopropyl acetate | 0.0322 | 0.0429 | 0.0625 | 0.0768 | 0.109 | 0.154 | 0.206 | 0.287 | 0.365 | 0.455
in methanol | 0.234 | 0.275 | 0.309 | 0.337 | 0.367 | 0.416 | 0.445 | 0.497 | 0.557 | 0.61
in n-butyl acetate | 0.0279 | 0.0337 | 0.0428 | 0.0577 | 0.0846 | 0.108 | 0.161 | 0.21 | 0.293 | 0.412
in n-heptane | 1.02e-05 | 1.86e-05 | 3.36e-05 | 4.77e-05 | 8.17e-05 | 0.000113 | 0.000168 | 0.000249 | 0.000335 | 0.000493
in n-hexane | 4.1e-05 | 6.64e-05 | 8.92e-05 | 0.000133 | 0.00018 | 0.000239 | 0.000324 | 0.000413 | 0.000524 | 0.000739
in n-propanol | 0.137 | 0.17 | 0.204 | 0.245 | 0.28 | 0.318 | 0.365 | 0.412 | 0.475 | 0.52

From BigSolDB 2.1
